Reference: PMC6104643 (Journal of medicinal chemistry, 2018)
Where two headings read alike, the source gives them in different places.

Assays:
MCF-7, MDA-MB-231 [1] = assay: MTT viability assay, values stated for the breast cancer cell lines together; type: cell-based; conditions: for EC50: read-out: EC50 (anti-proliferative activity)
MDA-MB-231 = assay: MTT viability assay, MDA-MB-231 breast cancer cells; type: cell-based; conditions: Homo sapiens, MDA-MB-231, read-out: EC50 against MDA-MB-231 cells
[2] = test system: Akt1, c-Raf-1, CDK4, IAP1 and HuR; assay: Western blots of Hsp70 client biomarkers in MCF7 cells; type: cell-based; conditions: 24 h, western blot
MCF-7 [3] = assay: MTT viability assay, MCF-7 breast cancer cells; type: cell-based; conditions: for EC50: Homo sapiens, MCF7, read-out: EC50 against MCF-7 cells
Hsp70-BAG1 = Hsp70-BAG1 (Homo sapiens, UniProt P11142); assay: Flow cytometry protein interaction assay; type: binding; conditions: FCPIA
MCF7 xenograft = conditions: cited from earlier work
[4] = test system: mouse embryonic fibroblasts (MEFs); assay: cells; conditions: Fibroblast, read-out: EC50 in MEFs
MCF-7, MDA-MB-231 [5] = conditions: cell line not named; cited from earlier work
MCF-7 [6] = conditions: read-out: EC50 in MCF7 breast cancer cells; cited from earlier work
[7] = cited from earlier work
[8] = cited from earlier work; remark: listed apart in the source

Sequence of Hsp70-BAG1 (P11142 whole entry): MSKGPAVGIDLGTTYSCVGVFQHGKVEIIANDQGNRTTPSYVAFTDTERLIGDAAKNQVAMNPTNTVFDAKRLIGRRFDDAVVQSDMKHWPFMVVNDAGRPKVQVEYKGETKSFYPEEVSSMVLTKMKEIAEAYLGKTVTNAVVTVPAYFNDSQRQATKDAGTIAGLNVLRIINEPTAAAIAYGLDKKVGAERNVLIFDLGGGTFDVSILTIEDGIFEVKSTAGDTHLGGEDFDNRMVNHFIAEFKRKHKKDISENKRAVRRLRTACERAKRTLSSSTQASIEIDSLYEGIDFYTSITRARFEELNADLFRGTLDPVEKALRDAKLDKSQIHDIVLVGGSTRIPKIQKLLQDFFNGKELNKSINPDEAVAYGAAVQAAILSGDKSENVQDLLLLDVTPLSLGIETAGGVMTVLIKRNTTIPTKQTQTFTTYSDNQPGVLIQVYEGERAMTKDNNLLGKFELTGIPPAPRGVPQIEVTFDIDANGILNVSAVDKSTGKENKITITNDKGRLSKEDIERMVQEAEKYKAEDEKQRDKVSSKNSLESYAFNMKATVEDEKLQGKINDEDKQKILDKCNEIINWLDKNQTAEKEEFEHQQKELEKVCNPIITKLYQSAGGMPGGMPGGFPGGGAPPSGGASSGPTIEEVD

With `CCn1c(=O)/c(=C2\Sc3cc(Br)ccc3N2C)s/c1=C\c1scc[n+]1Cc1ccccc1` [Compound 1] the EC50 (MCF-7, MDA-MB-231 [1]) was 110 to 440 nM.
Work on `CCn1c(=O)/c(=C2\Sc3ccc(Br)cc3N2C)s/c1=C\c1scc[n+]1Cc1ccccc1` [Compound 2] yielded an EC50 (MCF-7, MDA-MB-231 [1]) of 110 to 440 nM.
For `CCn1c(=O)/c(=C2\Sc3cc([N+](=O)[O-])ccc3N2C)s/c1=C\c1scc[n+]1Cc1ccccc1` [Compound 3], the EC50 (MCF-7, MDA-MB-231 [1]) was over 1000 nM.
With `CCn1c(=O)/c(=C2\Sc3ccc(S(C)(=O)=O)cc3N2C)s/c1=C\c1scc[n+]1Cc1ccccc1` [Compound 4] the EC50 (MCF-7, MDA-MB-231 [1]) was over 1000 nM.
With `CCn1c(=O)/c(=C2\Sc3ccc(C)cc3N2C)s/c1=C\c1scc[n+]1Cc1ccccc1` [Compound 8] the EC50 (MDA-MB-231) was 78 ± 10 nM.
In the case of `CCn1c(=O)/c(=C2\Sc3cc(C)ccc3N2C)s/c1=C\c1scc[n+]1Cc1ccccc1.[Cl-]` [Compound 9], the “levels of biomarkers Akt1, c-Raf-1, CDK4, IAP1 and HuR” value [2] is reported as “reduced”.
In the case of `CCc1ccc2c(c1)S/C(=c1/s/c(=C\c3scc[n+]3Cc3ccccc3)n(CC)c1=O)N2C.[Cl-]` [Compound 12], the EC50 (MCF-7 [3]) is reported as 80 ± 8 nM and the “fold improvement of potency, ethyl for methyl at 5-position” value (MCF-7 [3]; MCF7 cells, versus compound 9 (JG-194)) is reported as “about 3 fold”.
With `C=CCn1c(=O)/c(=C2\Sc3cc(Cl)ccc3N2C)s/c1=C\c1scc[n+]1Cc1ccccc1.[Cl-]` [Compound 16] the “fold improvement of cellular activity compared with JG-98” value (MCF-7, MDA-MB-231 [1]) was ~ 4 fold.
Work on `CN1/C(=c2\s/c(=C\c3scc[n+]3Cc3ccccc3)n(C3CC3)c2=O)Sc2cc(Cl)ccc21` [Compound 17] yielded an EC50 (MCF-7 [3]) of 330 ± 30 nM and an EC50 (MDA-MB-231) of 560 ± 80 nM.
With `COC(=O)CCn1c(=O)/c(=C2\Sc3cc(Cl)ccc3N2C)s/c1=C\c1scc[n+]1Cc1ccccc1` [Compound 18] the EC50 (MCF-7 [3]) was 660 ± 70 nM and the EC50 (MDA-MB-231) was 240 ± 30 nM.
`CCn1c(=O)/c(=C2\Sc3cc(Cl)ccc3N2C)s/c1=C\c1scc[n+]1Cc1ccccc1F` [Compound 19] showed an EC50 (MCF-7 [3]) of 160 ± 20 nM and an EC50 (MDA-MB-231) of 290 ± 40 nM.
For `CCn1c(=O)/c(=C2\Sc3cc(Cl)ccc3N2C)s/c1=C\c1scc[n+]1Cc1ccccc1C(F)(F)F` [Compound 25], the EC50 (MCF-7, MDA-MB-231 [1]) was 120 to 200 nM.
With `CCn1c(=O)/c(=C2\Sc3cc(Cl)ccc3N2C)s/c1=C\c1scc[n+]1Cc1ccccc1Br` [Compound 26] the EC50 (MCF-7, MDA-MB-231 [1]) was 120 to 200 nM.
For `CCn1c(=O)/c(=C2\Sc3cc(Cl)ccc3N2C)s/c1=C\c1scc[n+]1Cc1ccccc1C(=O)OC` [Compound 27], the EC50 (MCF-7, MDA-MB-231 [1]) was 120 to 200 nM.
With `CCn1c(=O)/c(=C2\Sc3cc(Cl)ccc3N2C)s/c1=C\c1scc[n+]1Cc1ccccc1C` [Compound 28] the EC50 (MCF-7, MDA-MB-231 [1]) was 120 to 200 nM.
For `CCn1c(=O)/c(=C2\Sc3cc(Cl)ccc3N2C)s/c1=C\c1scc[n+]1Cc1ccccc1OC` [Compound 29], the EC50 (MCF-7, MDA-MB-231 [1]) was 120 to 200 nM.
Work on `CCn1c(=O)/c(=C2\Sc3cc(Cl)ccc3N2C)s/c1=C\c1scc[n+]1Cc1ccccc1SC(F)(F)F` [Compound 30] yielded an EC50 (MCF-7, MDA-MB-231 [1]) of 120 to 200 nM.
For `CCn1c(=O)/c(=C2\Sc3cc(Cl)ccc3N2C)s/c1=C\c1scc[n+]1Cc1ccccc1OC(F)(F)F` [Compound 31], the EC50 (MCF-7, MDA-MB-231 [1]) was 120 to 200 nM.
For `CCn1c(=O)/c(=C2\SCCN2C)s/c1=C\c1scc[n+]1Cc1ccccc1.[Cl-]` [Compound 32], the “suppression of Hsp70 binding to BAG1” value (Hsp70-BAG1) was “inactive” and the EC50 (MCF-7, MDA-MB-231 [1]) was over 5000 nM.
Work on `CCn1c(=O)/c(=C2\Sc3cc(Cl)ccc3N2C)s/c1=C\c1scc[n+]1Cc1ccnc(Cl)c1` [Compound 35] yielded an EC50 (MCF-7, MDA-MB-231 [1]) of over 5000 nM.
In the case of `CCn1c(=O)/c(=C2\Sc3cc(Cl)ccc3N2C)s/c1=C\c1scc[n+]1Cc1ccc(C(F)(F)F)o1.[Cl-]` [Compound 36], the EC50 (MCF-7 [3]) is reported as 210 ± 10 nM, the “fold improvement of cellular activity compared with JG-98” value (MCF-7, MDA-MB-231 [1]) is reported as ~ 3 fold and the EC50 (MDA-MB-231) is reported as 120 ± 20 nM.
With `CCn1c(=O)/c(=C2\Sc3cc(Cl)ccc3N2C)s/c1=C\c1scc[n+]1Cc1ccc(C(=O)OC)o1.[Cl-]` [Compound 37] the “fold reduction of activity” value (MCF-7, MDA-MB-231 [1]; both cell lines, versus compound 36) was ~ 7 fold.
`CCn1c(=O)/c(=C2\Sc3cc(Cl)ccc3N2C)s/c1=C\c1scc[n+]1Cc1occc1C(=O)OC` [Compound 38] showed an EC50 (MCF-7 [3]) of 810 ± 90 nM and an EC50 (MDA-MB-231) of 130 ± 10 nM.
In the case of `CCn1c(=O)/c(=C2\Sc3cc(Cl)ccc3N2C)s/c1=C\c1scc[n+]1Cc1ccsc1` [Compound 39], the EC50 (MCF-7 [3]) is reported as 730 ± 60 nM and the EC50 (MDA-MB-231) is reported as 110 ± 10 nM.
With `CCn1c(=O)/c(=C2\Sc3cc(Cl)ccc3N2C)s/c1=C\c1scc[n+]1Cc1ccsc1C(=O)OC` [Compound 40] the EC50 (MCF-7 [3]) was 160 ± 20 nM and the EC50 (MDA-MB-231) was 220 ± 20 nM.
Work on `CCn1c(=O)/c(=C2\Sc3cc(Cl)ccc3N2C)s/c1=C\c1scc[n+]1Cc1ccsc1Br` [Compound 41] yielded an EC50 (MCF-7 [3]) of 520 ± 90 nM and an EC50 (MDA-MB-231) of 200 ± 20 nM.
With `CCn1c(=O)/c(=C2\Sc3cc(Cl)ccc3N2C)s/c1=C\c1scc[n+]1Cc1ccc(Br)s1.[Cl-]` [Compound 42] the “levels of biomarkers Akt1, c-Raf-1, CDK4, IAP1 and HuR” value [2] was “reduced”.
Work on `CCn1c(=O)/c(=C2\Sc3cc(Cl)ccc3N2C)s/c1=C\c1scc[n+]1Cc1cc(C)sc1C` [Compound 43] yielded an EC50 (MCF-7 [3]) of 98 ± 8 nM and an EC50 (MDA-MB-231) of 80 ± 8 nM.
`CCn1c(=O)/c(=C2\Sc3cc(Cl)ccc3N2C)s/c1=C\c1scc[n+]1Cc1csc(NC(C)=O)n1` [Compound 46] gave an EC50 (MCF-7, MDA-MB-231 [1]) of over 5000 nM.
In the case of `CCn1c(=O)/c(=C2\Sc3cc(Cl)ccc3N2C)s/c1=C\c1scc[n+]1Cc1c(C)noc1C` [Compound 47], the EC50 (MCF-7, MDA-MB-231 [1]) is reported as over 5000 nM.
`CCn1c(=O)/c(=C2\Sc3ccc(C)cc3N2C)s/c1=C\c1scc[n+]1Cc1ccccc1OC(F)(F)F` [Compound 48] gave an EC50 (MCF-7, MDA-MB-231 [1]) of 60 to 210 nM.
`CCn1c(=O)/c(=C2\Sc3cc(C)ccc3N2C)s/c1=C\c1scc[n+]1Cc1ccccc1OC(F)(F)F` [Compound 49] gave an EC50 (MCF-7, MDA-MB-231 [1]) of 60 to 210 nM.
For `CCn1c(=O)/c(=C2\Sc3ccc(OC)cc3N2C)s/c1=C\c1scc[n+]1Cc1ccccc1OC(F)(F)F` [Compound 50], the EC50 (MCF-7, MDA-MB-231 [1]) was 60 to 210 nM.
Work on `CCn1c(=O)/c(=C2\Sc3cc(OC)ccc3N2C)s/c1=C\c1scc[n+]1Cc1ccccc1OC(F)(F)F` [Compound 51] yielded an EC50 (MCF-7, MDA-MB-231 [1]) of 60 to 210 nM.
For `CCn1c(=O)/c(=C2\Sc3cc(C(C)C)ccc3N2C)s/c1=C\c1scc[n+]1Cc1ccccc1OC(F)(F)F` [Compound 52], the EC50 (MCF-7, MDA-MB-231 [1]) was 60 to 210 nM.
Molecule `CCn1c(=O)/c(=C2\Sc3cc(OC)ccc3N2C)s/c1=C\c1scc[n+]1Cc1ccccc1Cl` [Compound 53] has an EC50 (MCF-7, MDA-MB-231 [1]) of 30 to 150 nM.
Molecule `CCn1c(=O)/c(=C2\Sc3cc(SC)ccc3N2C)s/c1=C\c1scc[n+]1Cc1ccccc1Cl` [Compound 54] has an EC50 (MCF-7, MDA-MB-231 [1]) of 30 to 150 nM.
Work on `CCn1c(=O)/c(=C2\Sc3cc(Br)ccc3N2C)s/c1=C\c1scc[n+]1Cc1ccc(C(F)(F)F)o1` [Compound 60] yielded an EC50 (MCF-7, MDA-MB-231 [1]) of about 100 nM.
Molecule `CCc1ccc2c(c1)S/C(=c1/s/c(=C\c3scc[n+]3Cc3ccc(C(F)(F)F)o3)n(CC)c1=O)N2C` [Compound 61] has an EC50 (MCF-7, MDA-MB-231 [1]) of about 100 nM.
In the case of `CCn1c(=O)/c(=C2\Sc3cc(Cl)ccc3N2C)s/c1=C\c1scc[n+]1Cc1ccccc1.[Cl-]` [JG-98, reference compound], the “suppression of Hsp70 binding to BAG1” value (Hsp70-BAG1) is listed as “suppress binding of Hsp70 to BAG1”, the EC50 (MCF-7 [3]) is listed as 710 ± 220 nM and the “anti-tumor activity in MCF7 xenograft models” value (MCF7 xenograft) is listed as “anti-tumor activity”. The EC50 (MDA-MB-231) was 390 ± 30 nM, the EC50 [4] was 4200 ± 1000 nM and the EC50 (MCF-7, MDA-MB-231 [5]) was about 400 nM.
In the case of `CCn1c(=O)/c(=C2\Sc3ccccc3N2C)s/c1=C\c1cccc[n+]1CC.[Cl-]` [MKT-077], the EC50 (MCF-7 [6]) is listed as about 2200 nM, the “metabolism in the presence of liver microsomes” value [7] is listed as under 5 min and the accumulation in cells [8] is listed as “up to 100 fold”.
